System: Escherichia coli (ATCC 11229)/Staphylococcus aureus (ATCC 6538)/Pseudomonas aeruginosa (ATCC 27853)
Experiment: Zone of Inhibition Test, control line (organism not stated)
Format: cell-based
Settings: 5 μg disk, n = 1; one value only, organism not assigned; 48 hours at ambient temperature
Procedure: Zone of inhibition testing with a variety of gram negative and gram positive bacteria was performed. The test material was brought into contact with a known amount of test microorganisms on an agar plate for 48 hours at ambient temperature. At the end of the contact time the diameter of inhibited colony formation (zone of inhibition) surrounding the test material was measured.
Referenced method AATCC 147-1998 “Antibacterial Activity Assessment of Textile Materials: Parallel Streak Method” with changes for following Zone of Inhibition procedure (AATCC is “American Association of Textile Chemists and Colorists” located in Research Triangle Park, N.C.):
Organisms used in this study were Escherichia coli (ATCC 11229)/Staphylococcus aureus (ATCC 6538)/Pseudomonas aeruginosa (ATCC 27853) (ATCC is “American Type Culture Collection” an organization in Manassas, Va.). Washed cells were diluted in Butterfield's Phosphate buffer to a target titer of approximately 10^8 colony forming units (CFU)/mL. Agar plates for testing were brought to room temperature prior to inoculation. A sterile applicator swab was placed in cell suspension and excess fluid was expressed using the side of the centrifuge tube. […] At the end of the contact time, the diameter of inhibited colony formation (zone of inhibition) surrounding the test material was measured.

For CN[C@H](CC(C)C)C(=O)N[C@H]1C(=O)N[C@@H](CC(N)=O)C(=O)N[C@H]2C(=O)N[C@H]3C(=O)N[C@H](C(=O)N[C@H](C(=O)O)c4cc(O)cc(O)c4-c4cc3ccc4O)[C@H](O)c3ccc(c(Cl)c3)Oc3cc2cc(c3O[C@@H]2O[C@H](CO)[C@@H](O)[C@H](O)[C@H]2O[C@H]2C[C@](C)(N)[C@H](O)[C@H](C)O2)Oc2ccc(cc2Cl)[C@H]1O [Positive Control, vancomycin], the “ZOI* (cm), single value for control” value was 1.9 cm.

Source: patent US20150181863A1, “FLEXIBLE SUPERABSORBENT BINDER POLYMER AND ANTIMICROBIAL AGENT COMPOSITION” (EVONIK INDUSTRIES AG, priority 2013, published 2015)
